Experimental data from patent US20090054435A1, “Phenoxyalkanoic Acid Compound” (priority 2005, published 2009).
pEC50: −log10 of the molar value.

Tests used:
PPAR γ-RXRα heterodimer = target: T1, PPAR γ-RXRα heterodimer (Homo sapiens, UniProt P37231); test: PPAR γ-RXRα heterodimer ligand activity (luciferase reporter in PPAR γ:RXRα:4ERPP/CHO-K1 cells); assay type: cell-based; details: for pEC50: compound concentration showing 50% of the maximum induction rate of luciferase activity, 18-24 hr incubation; for Vmax (%): maximum luciferase induction relative to 5-{4-[2-(5-methyl-2-phenyl-1,3-oxazol-4-yl)ethoxy]benzyl}-1,3-thiazolidin-2,4-dione (PPARγ full agonist) as 100%
T1 construct: expressed in transfected cells; host or cells: CHO-K1 (PPAR γ:RXRα:4ERPP/CHO-K1)
T1 sequence (P37231 29-505 limits assumed): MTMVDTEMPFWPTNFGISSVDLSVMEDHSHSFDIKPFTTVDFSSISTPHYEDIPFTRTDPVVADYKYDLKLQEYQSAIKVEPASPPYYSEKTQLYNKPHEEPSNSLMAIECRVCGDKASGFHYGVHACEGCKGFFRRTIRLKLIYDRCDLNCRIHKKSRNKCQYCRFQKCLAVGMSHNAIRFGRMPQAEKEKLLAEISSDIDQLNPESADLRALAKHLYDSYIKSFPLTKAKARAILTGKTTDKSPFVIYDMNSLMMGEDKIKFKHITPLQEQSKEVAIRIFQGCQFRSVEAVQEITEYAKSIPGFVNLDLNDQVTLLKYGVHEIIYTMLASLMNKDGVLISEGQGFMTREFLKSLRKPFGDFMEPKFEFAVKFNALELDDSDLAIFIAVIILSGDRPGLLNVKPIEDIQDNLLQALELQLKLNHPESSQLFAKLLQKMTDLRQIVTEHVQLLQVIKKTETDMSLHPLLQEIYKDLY
T1 sequence (P19793 1-462 partner): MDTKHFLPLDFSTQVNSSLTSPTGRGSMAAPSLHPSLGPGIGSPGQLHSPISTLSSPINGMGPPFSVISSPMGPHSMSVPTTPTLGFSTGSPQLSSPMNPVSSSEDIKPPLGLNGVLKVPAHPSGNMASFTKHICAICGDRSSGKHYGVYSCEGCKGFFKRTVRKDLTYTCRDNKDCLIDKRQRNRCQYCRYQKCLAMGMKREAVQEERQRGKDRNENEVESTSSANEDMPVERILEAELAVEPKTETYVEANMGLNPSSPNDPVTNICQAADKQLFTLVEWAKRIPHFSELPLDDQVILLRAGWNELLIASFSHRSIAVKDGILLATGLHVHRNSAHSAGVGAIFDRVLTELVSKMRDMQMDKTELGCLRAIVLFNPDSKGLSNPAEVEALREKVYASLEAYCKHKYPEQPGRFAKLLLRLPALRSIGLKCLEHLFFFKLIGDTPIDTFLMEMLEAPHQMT
Experimental: The PPAR γ:RXRα:4ERPP/CHO-K1 cells described in WO03/099793 were cultured in a HamF12 medium [manufactured by Life Technologies, Inc., US] containing 10% calf fetal serum [manufactured by Life Technologies, Inc., US], sown in a 96-well white plate [manufactured by Corning Coster Corporation, US] at 2×10^4 cells/well, and incubated overnight in a carbon dioxide gas incubator at 37° C.
Then, the medium was removed from the 96 well white plate, 80 μl of HamF12 medium containing 0.1% fatty acid-free bovine serum albumin (BSA) and a test compound (20 μl) were added, and the cells were incubated for 18-24 hr in a carbon dioxide gas incubator at 37° C. The medium was removed, 40 μl of PicaGene7.5 (manufactured by Wako Pure Chemical Industries, Ltd.) 2-fold diluted with HBSS (HANKS' BALANCED SALT SOLUTION) [manufactured by BIO WHITTAKER, US] was added. After stirring, the luciferase activity was determined using the 1420 ARVO Multilabel Counter [manufactured by PerkinElmer, US].
The induction rate was calculated from the luciferase activity of each test compound based on the luciferase activity of the test compound non-administration group as 1. The test compound concentration and the induction rate were analyzed by PRISM [manufactured by GraphPad Software, Inc., US] to calculate EC50 value (compound concentration showing 50% of the maximum value of induction rate) of the test compound.
In addition, the luciferase activity induction magnification maximum value of each test compound relative to that of the 5-{4-[2-(5-methyl-2-phenyl-1,3-oxazol-4-yl)ethoxy]benzyl}-1,3-thiazolidin-2,4-dione (PPARγ full agonist) administration group as 100% was defined as Vmax and calculated.

KKAy mice = test: Blood glucose and blood lipid (triglyceride) lowering action in mice; assay type: in vivo; details: 6 days; for hypoglycemic action (%): decrease rate of blood glucose vs non-administration group (100%); for hypolipidemic action (%): decrease rate of blood triglyceride vs non-administration group (100%)
From the text: The test compound was mixed with a powder diet (CE-2, CLEA JAPAN, INC.) at a proportion of 0.01% (0.03% for the compound of Example 1) and freely given to KKAy mice (9 to 12-week-old, 5 mice per group) which are obese non-insulin-dependent diabetes (type-2 diabetes) models, for 6 days. During this period, water was freely given to the mice. The blood was drawn from the orbital venous plexus. Glucose and triglyceride in the plasma separated from the blood were quantitated using L Type Wako Glu2 (Wako Pure Chemical Industries, Ltd.) and L Type Wako TG·H (Wako Pure Chemical Industries, Ltd.), respectively, according to an enzyme method.

[1] = 0.03% in powder diet (compound of Example 1)

SMILES | pEC50 (PPAR γ-RXRα heterodimer) | Vmax (%) (PPAR γ-RXRα heterodimer) | melting point | hypoglycemic action (%) (KKAy mice; [1]) | hypolipidemic action (%) (KKAy mice; [1]) | hypoglycemic action (%) (KKAy mice; 0.01% in powder diet) | hypolipidemic action (%) (KKAy mice; 0.01% in powder diet)
COc1ccc(C(=O)c2ccc(OCc3nc(-c4ccccc4)oc3C)cc2)c(OCC(=O)O)c1 [Example 1, (5-methoxy-2-{4-[(5-methyl-2-phenyl-1,3-oxazol-4-yl)methoxy]benzoyl}phenoxy)acetic acid] | 7.00 | 57% | 146 to 147 °C | 54% | 44% |  | 
COc1ccc(C(=O)c2ccc(OCc3nc(-c4ccccc4)oc3C)cc2)c(OC(C)(C)C(=O)O)c1 [Example 14, 2-(5-methoxy-2-{4-[(5-methyl-2-phenyl-1,3-oxazol-4-yl)methoxy]benzoyl}phenoxy)-2-methylpropanoic acid] | 7.82 | 61% | 175 to 177 °C |  |  | 38% | 29%
COc1ccc(C(=O)c2ccc(OCc3nc(-c4ccccc4)oc3C)nc2)c(OC(C)C(=O)O)c1 (stereo not drawn) [Example 21, 2-[5-methoxy-2-({6-[(5-methyl-2-phenyl-1,3-oxazol-4-yl)methoxy]pyridin-3-yl}carbonyl)phenoxy]propanoic acid] | 8.09 | 60% | 162 to 163 °C |  |  | 32% | 14%
COc1cc(C)c(C(=O)c2ccc(OCc3nc(-c4ccccc4)oc3C)cc2)c(O[C@H](C)C(=O)O)c1 [Example 42, (2R)-2-(5-methoxy-3-methyl-2-{4-[(5-methyl-2-phenyl-1,3-oxazol-4-yl)methoxy]benzoyl}phenoxy)propanoic acid] | 9.00 | 73% | 122 to 123 °C |  |  |  | 
COc1ccc(C(=O)c2ccc(OCc3nc(-c4ccccc4)oc3C)cc2)c(O[C@H](C)C(=O)O)c1 [Example 53, (2R)-2-(5-methoxy-2-{4-[(5-methyl-2-phenyl-1,3-oxazol-4-yl)methoxy]benzoyl}phenoxy)propanoic acid] | 8.29 | 60% | 169 to 170 °C |  |  | 46% | 12%

The remaining compounds from weak to strong by pEC50 (PPAR γ-RXRα heterodimer), led by results:

pEC50 (PPAR γ-RXRα heterodimer) | Vmax (%) (PPAR γ-RXRα heterodimer) | melting point | SMILES | hypoglycemic action (%) (KKAy mice; [1]) | hypolipidemic action (%) (KKAy mice; [1]) | hypoglycemic action (%) (KKAy mice; 0.01% in powder diet) | hypolipidemic action (%) (KKAy mice; 0.01% in powder diet)
7.48 | 70% | 186 to 187 °C | Cc1oc(-c2ccccc2)nc1COc1ccc(C(=O)c2ccccc2OC(C)C(=O)O)cc1 (stereo not drawn) [Example 22, 2-(2-{4-[(5-methyl-2-phenyl-1,3-oxazol-4-yl)methoxy]benzoyl}phenoxy)propanoic acid] |  |  | 41% | 48%
7.82 | 44% |  | COc1ccc(C(=O)c2ccc(OCCc3nc(-c4ccccc4)oc3C)nc2)c(O[C@H](C)C(=O)O)c1 [Example 55, (2R)-2-[5-methoxy-2-({6-[2-(5-methyl-2-phenyl-1,3-oxazol-4-yl)ethoxy]pyridin-3-yl}carbonyl)phenoxy]propanoic acid] |  |  |  | 
